{
  "source": "patent US20050244959A1",
  "about": "“Methods for inducing active hepatocytes proliferation, kits using such methods and uses of said kits” (priority 2004, published 2005)",
  "key": {"[1]": {"test_system": "rat hepatocytes in coculture with rat biliary epithelial cells (RLEC)", "assay": "Hepatocyte DNA synthesis by BrdU labeling in rat hepatocyte/RLEC coculture", "assay_type": "cell-based", "method": "Freshly isolated hepatocytes are seeded on plastic dishes at 7×10^4 cells per cm2 in a mixture of 75% minimal essential medium and 25% 199 medium (Eurobio), supplemented with 2 mM L-glutamine, 0,1% bovine serum albumin (BSA, Sigma), 100 μg/ml streptomycin, 100 Ul/ml penicillin, 5 μg/ml bovine insulin (Sigma), 1.4×10^-6 M hydrocortisone hemisuccinate (Roussel) and 10% fetal calf serum (Hyclone). This medium is called “basal medium”.\nAfter cell adhesion, approximately 4 hours after seeding, RLEC, previously trypsinized, are added on spread hepatocytes at 2×10^5 cells per cm2 in basal medium.\nTwenty four hours later, the medium is removed and replaced by a medium supplemented in 7×10^-5 M hydrocortisone hemisuccinate, which promotes hepatocyte differentiation and survival. This medium is renewed everyday for 4 days. Then, the concentration of hydrocortisone hemisuccinate is decreased to 7×10^-6 M for 2 days.\n7 day-old cocultures are stimulated with human recombinant EGF (50 ng/ml, Promega) and human recombinant TNF-alpha (10 ng/ml, Promokine) in basal medium for 3 to 10 days. The medium is renewed everyday. As control, cocultures exposed to TNFα alone or EGF are used.\nTo induce several rounds of hepatocyte proliferation, 7 day-old cocultures are stimulated with human recombinant EGF (50 ng/ml) and human recombinant TNFα (10 ng/ml) in basal medium, for 10 days. Then, a pause in stimulation is performed for 4 days, during which cells are maintained in medium supplemented in 7×10^-6 M hydrocortisone hemisuccinate. Next, cocultures are treated with EGF and TNFα in basal medium for 10 days.\n(§1) Hepatocyte DNA synthesis is measured by using BrdU (bromodeoxyuridine) labeling. BrdU incorporation in DNA is detected by immunohistochemistry using the Cell Proliferation Kit (Amersham). The number of labeled hepatocytes is determined (5 fields per dish) in order to calculate the percentage of BrdU incorporation."}, "[2]": {"test_system": "rat hepatocytes in coculture", "assay": "Inhibition of extracellular matrix remodeling: hepatocyte DNA synthesis in coculture", "assay_type": "cell-based", "conditions": "phenanthroline 1 μM added to cocultures treated with EGF for 24 h and then with TNFα", "method": "as §1\n7 day-old cocultures are stimulated with EGF and then with TNFα for 24 h periods. Factors are added in a FCS-free medium. Inhibition of extracellular matrix degradation is induced with 1,10-Phenanthroline monohydrate (Sigma), a chelator of metal ions which inhibits the metalloproteinase activity. This compound is soluble in dimethylsulfoxyde and is used at 1 μM."}, "extracellular matrix": {"test_system": "extracellular matrix", "assay": "Extracellular matrix deposition analysis (reticulin staining) in coculture", "assay_type": "cell-based, rat", "conditions": "7 day-old cocultures", "method": "Matrix fibers are visualized in cocultures fixed with a mixture of 4% paraformaldehyde and 2.5% glutaraldehyde in 0.1 M cacodylate buffer (pH 7.4) for 15 min at 4° C. Then the reticulin staining by silver impregnation of extracellular matrix is carried out according to the method of Gordon and Sweets and applied to coculture (Exp Cell Res 1984; J Cell Biol 1991). Matrix components are analysed by immunostaining using antibodies against fibronectin, collagen I, collagen III)"}, "pro-MMP9": {"test_system": "pro-MMP9", "assay": "Gelatin zymography of coculture supernatant", "assay_type": "cell-based, rat", "conditions": "FCS-free medium, 24 h", "method": "7 day-old cocultures are stimulated with different combinations of TNFα and/or EGF in a FCS-free medium for 24 h. Twenty μl of supernatant are electrophoresed under nonreducing conditions on 12% SDS-polyacrylamide gel containing 0,1% bovine skin gelatin (Sigma) as substrate. After electrophoresis, the gel is washed twice with 2.5% Triton X-100 for 10 min and twice with water for 20 min. After incubation overnight at 37° C. in reaction buffer (50 mM Tris-HCL, pH 8; 5 mM CaCl2; 5 μM ZnCl2), the gel is stained with Coomassie Brillant Blue and destained. Clear zones in blue background indicate the presence of metalloproteinase pro-MMP9 activity; 5% FCS is used as positive control."}, "[3]": {"test_system": "cyclin D1, EF21, cyclin E, Cdk1", "assay": "Expression of cell cycle markers in coculture", "assay_type": "cell-based, rat", "conditions": "successive 24 h treatments", "method": "A test is provided to analyze the mechanism of cell cycle blockage or progression (early G1, Late G1, S and M) induced by drugs by studying the expression of cell cycle markers which sign different steps of cell cycle (cyclin D1, E2 F1, Cdk2, cyclin E, Cdk1, cyclin B, PCNA, alpha tubulin). Successive 24 h treatments of cocultures by molecules added alone or in combination with EGF or TNFα are used to determine the effect of each molecule.\nCells are arrested at each time (24 and 48 h) and protein extracts are prepared and separated in SDS-polyacrylamide gel. Cell cycle markers are analyzed by western blot using corresponding antibodies."}, "human hepatocytes": {"test_system": "human hepatocytes", "assay": "DNA synthesis by BrdU incorporation in pure culture of human hepatocytes", "assay_type": "cell-based", "conditions": "stimulated 24 h after seeding for 48 h", "method": "Freshly isolated hepatocytes are seeded on plastic dishes at 5×10^4 cells per cm2 in a William's E medium (Eurobio) supplemented with 2 mM L-glutamine (Gibco), 0,1% bovine serum albumin (BSA, Sigma), 100 μg/ml streptomycin, 100 Ul/ml penicillin (Eurobio), 50 μg/ml gentamycine (Sigma), 5 μg/ml bovine insulin (Sigma), and 10% fetal calf serum (HyClone).\nTwenty four hours after seeding, human hepatocytes are stimulated with recombinant human TNFα (Promokine, 10 ng/ml) and recombinant human EGF (Promega, 50 ng/ml). These factors are added in William's E medium (Eurobio) supplemented with 2 mM L-glutamine (Gibco), 0,1% bovine serum albumin (BSA, Sigma), 100 μg/ml streptomycin, 100 Ul/ml penicillin (Eurobio), 50 μg/ml gentamycine (Sigma), 5 μg/ml bovine insulin (Sigma), 1.4×10^-6 M hydrocortisone hemisuccinate (Roussel), 10% fetal calf serum. This medium is renewed every day and stimulation lasts at least 2 days.\nBrdU is incubated in medium during the last 24 h of treatment. Then pure cultures are fixed with a mixture of 90% ethanol, 5% acid acetic and 5% water for 20 min at 4° C. BrdU incorporation in DNA is detected by immunohistochemistry using the Cell Proliferation kit (Amersham). Next, cytoplasm and nuclei are stained in blue with Hemalun (Merck). The numbers of labeled hepatocytes are determined (5 fields per dish) in order to calculate percentage of BrdU incorporation."}},
  "data": [
    {"compound": "TGFα: transforming growth factor alpha (20 ng/ml), replacing EGF", "values": [
      {"measurement": "DNA synthesis when EGF is replaced by another growth factor", "setting": "[1]; with TNFα, HGF 25 ng/ml, TGFα 20 ng/ml, compared with TNFα/EGF", "value": "highest DNA synthesis"}
    ]},
    {"compound": "O.c1cnc2c(c1)ccc1cccnc12", "note": "[phenanthroline, 1,10-Phenanthroline monohydrate]", "values": [
      {"measurement": "DNA synthesis", "setting": "[2]", "value": "strongly decreased"}
    ]},
    {"compound": "interleukin 6: cytokine known to modulate extracellular matrix remodeling, used at 5 ng/ml", "values": [
      {"measurement": "hepatocyte response to growth factors (DNA replication)", "setting": "[1]; coculture, 5 ng/ml", "value": "allow hepatocytes to respond to growth factors"}
    ]},
    {"compound": "EGF: human recombinant EGF (50 ng/ml, Promega), growth factor", "values": [
      {"measurement": "extracellular matrix (ECM) deposition", "setting": "extracellular matrix", "value": "very abundant"},
      {"measurement": "Pro-MMP9 (92 Kda) expression by zymography", "setting": "pro-MMP9", "value": "not detected"},
      {"measurement": "BrdU incorporation under permanent exposure", "setting": "[1]; continued after a first 10 day-stimulation with TNFα/EGF, from day 10", "value": "gradually decreases"},
      {"measurement": "effect on hepatocyte cell cycle progression", "setting": "[3]", "value": "promotes hepatocyte cell cycle progression to late G1"},
      {"measurement": "hepatocytes with DNA synthesis (S phase entry)", "setting": "human hepatocytes", "value": 8, "unit": "%"}
    ]},
    {"compound": "TNFα", "values": [
      {"measurement": "extracellular matrix (ECM) deposition", "setting": "extracellular matrix", "value": "very sparse"},
      {"measurement": "Pro-MMP9 (92 Kda) expression by zymography", "setting": "pro-MMP9", "value": "expressed"},
      {"measurement": "effect on hepatocyte cell cycle progression", "setting": "[3]", "value": "allows S entry through Cdk1 induction"}
    ]}
  ]
}
